pIC50: −log10 of the molar value. Structures can show the parent of a compound that is named as a salt.
Test system: Aβ42 production
Test: Quantification of Aβ peptide (Aβx-42 ELISA) in neuronal culture from rat fetus brain
Assay type: cell-based
Settings: primary neuronal culture from cerebral cortices of embryonic day 18 Wistar rat; compound added on day 4 of culture, incubation for 3 days; Aβx-42 in medium by ELISA, % of CTRL; read-out: Effect to Reduce Aβ42 Production IC50
Experimental: Quantification of Aβ Peptide in Neuronal Culture from Rat Fetus Brain (1)
Primary neuronal cultures were prepared from cerebral cortices from embryonic day 18 Wistar rat (Charles River Japan, Yokohama, Japan). The embryos were aseptically removed from a pregnant rat under ether anesthesia. The brain was isolated from the embryo, and immersed in ice-cold L-15 medium (for example, Invitrogen Corp. Cat #11415-064, Carlsbad, Calif., USA, or SIGMA L1518, St. Louis. MO, USA). The cerebral cortex was collected under a stereoscopic microscope from the brain. The cerebral cortex fragments collected were subjected to enzyme treatment in an enzyme solution containing 0.25% trypsin (for example, Invitrogen Corp., Cat #15050-065, Carlsbad, Calif., USA) and 0.01% DNase (for example, Sigma D5025, St. Louis. MO, USA) at 37 C for 30 minutes to allow for cell dispersion. The enzyme reaction was terminated by addition of same volume of heat-inactivated horse serum. After centrifugation at 1500 rpm for 5 minutes, the supernatant was removed and 5-10 ml of medium was added to the cell pellet. Neurobasal Medium™ (Invitrogen Corp., Carlsbad, Calif., USA) supplemented with 2% B-27 supplement (Invitrogen Corp., Carlsbad, Calif., USA), 25 μM 2-mercaptoethanol (2-ME, WAKO, 139-06861, Osaka, Japan), 0.5 mM L-glutamine (for example, Invitrogen Corp., Cat # 25030-081, Carlsbad, Calif., USA), and 1% antibiotics-antimycotics (Invitrogen Corp., Cat # 15240-062, Carlsbad, Calif., USA) was used as the culture medium (Neurobasal/B27/2-ME). At the compound evaluation, the medium of the same composition not to add 2-ME alone (Neurobasal/B27) was used. The cell pellet was triturated by mild pipetting. Remaining cell pellet was removed by filtering through a 40-μm nylon mesh (Cell Strainer, Cat # 35-2340, Becton Dickinson Labware, Franklin Lakes, N.J., USA) and a neuronal cell suspension was obtained. The neuronal cell suspension was diluted with the Neurobasal/B27/2-ME medium and then plated in a volume of 100 μl/well to obtain an initial cell density of 5×10^5 cells/cm^2 in a 96-well polystyrene plate pre-coated with poly-L or D-lysine (for example, Falcon MICROTEST Tissue culture plate 96 well flat bottom with low evaporation lid (Cat # 35-3075, Becton Dickinson Labware, Franklin Lakes, N.J., USA) coated with poly-L-lysine using the method shown below, or BIOCOAT™ cell environments Poly-D-lysine cell ware 96-well plate, Cat # 35-6461, Becton Dickinson Labware, Franklin Lakes, N.J., USA). Poly-L-lysine coating was carried out as follows. Poly-L-lysine (SIGMA P2636, St. Louis, Mo., USA) solution at 100 μg/ml was prepared aseptically with 0.15 M Borate buffer (pH 8.5). The solution was added to a 96-well polystyrene […] at 50-100 μl/well and incubated at room temperature for one hour or more, or at 4 C overnight or longer. This was rinsed 4 or more times with sterile water, and then dried or rinsed with, for example, sterile PBS or medium, and used for plating cells. Cells were cultured for one day in an incubator of 5% CO2-95% air at 37 C, the entire amount of the medium was exchanged with fresh Neurobasal/B27/2-ME, and the cells were then cultured for further 3 days.
Drugs were added on day 4 of culture as follows. The entire amount of the medium was removed from culture well, and Neurobasal/B27 medium was added at 180 μl/well. The test compound dimethyl sulfoxide (hereinafter abbreviated as DMSO) solution was diluted with Neurobasal/B27 so than it would be 10-fold of the desired final concentration. A diluent was added at 20 μl/well and mixed well. The final concentration of DMSO was 1% or less. Only DMSO was added to the control group.
After incubation for 3 days, the entire amount of the medium was collected as ELISA sample. This was used without any dilution for Aβx-42 measurement, and diluted to 5-fold with the diluent supplied with ELISA kit for Aβx-40 measurement, before subjecting to respective ELISA assays. […]

Compound COc1cc(/C=C/C(=O)N[C@H]2CCOc3ccccc32)ccc1-n1cnc(C)c1 (mixture of isomers) [Example 414, (E)-N-[(4R) and (4S)-chroman-4-yl]-3-[3-methoxy-4-(4-methyl-1H-imidazol-1-yl)phenyl]acrylamide] has a pIC50 of 6.89.

Compound COc1cc(/C=C2\CCCN([C@H]3CCOc4ccccc43)C2=O)ccc1-n1cnc(C)c1 (mixture of isomers) [Example 420, (E)-1-[(4R) and (4S)-chroman-4-yl]-3-[3-methoxy-4-(4-methyl-1H-imidazol-1-yl)benzylidene]piperidin-2-one] has a pIC50 of 6.92.

In the case of COc1cc(/C=C2\CCCN([C@H](C)c3ccc(F)cc3F)C2=O)ccc1-n1cnc(C)c1 (mixture of isomers) [Example 621, (E)-1-[(1R) and (1S)-1-(2,4-difluorophenyl)ethyl]-3-[3-methoxy-4-(4-methyl-1H-imidazol-1-yl)benzylidene]piperidin-2-one], the pIC50 was 7.00.

COc1cc(C=C(F)C(=O)N[C@@H]2c3ccccc3C[C@@H]2O)ccc1-n1cnc(C)c1 (stereo in doubt) [Example 90, (E)-2-fluoro-N-[(1R,2S)-2-hydroxy-indan-1-yl]-3-[3-methoxy-4-(4-methyl-1H-imidazol-1-yl)phenyl]acrylamide] gave a pIC50 of 6.62.

Work on COc1cc(/C=C(\F)C(=O)NC2c3ccccc3-c3ccccc32)ccc1-n1cnc(C)c1 [Example 86, N-(9H-fluoren-9-yl)-2-fluoro-3-[3-methoxy-4-(4-methyl-1H-imidazol-1-yl)phenyl]acrylamide] yielded a pIC50 of 6.49.

In the case of COc1cc(/C=C(\Cc2ccccc2)C(=O)N[C@@H]2c3ccccc3C[C@@H]2O)ccc1-n1cnc(C)c1 [Example 96, (E)-2-benzyl-N-[(1R,2S)-2-hydroxy-indan-1-yl]-3-[3-methoxy-4-(4-methyl-1H-imidazol-1-yl)phenyl]acrylamide trifluoroacetic acid salt], the pIC50 was 6.66.

COc1cc(/C=C/C(=O)NCc2cccc(-c3ccccc3)c2)ccc1-n1cnc(C)c1 [Example 121, (E)-N-biphenyl-3-ylmethyl-3-(3-methoxy-4-(4-methyl-1H-imidazol-1-yl)phenyl)acrylic acid amide] gave a pIC50 of 7.15.

COc1cc(/C=C/C(=O)N[C@H]2CCc3ccccc32)ccc1-n1cnc(C)c1 [Example 122, (E)-N-[(1S)-indan-1-yl]-3-[3-methoxy-4-(4-methyl-1H-imidazol-1-yl)phenyl]acrylamide trifluoroacetic acid salt] gave a pIC50 of 6.72.

COc1cc(/C=C/C(=O)N[C@@H](CF)Cc2ccccc2)ccc1-n1cnc(C)c1 [Example 139, (E)-N-[(1R)-fluoromethyl-2-phenylethyl]-3-[3-methoxy-4-(4-methyl-1H-imidazol-1-yl)phenyl]acrylic acid amide] gave a pIC50 of 6.70.

In the case of COc1cc(/C=C/C(=O)N2CCC(c3cc4ccccc4[nH]3)CC2)ccc1-n1cnc(C)c1 [Example 338, (E)-1-{4-(1H-indol-2-yl)piperidin-1-yl}-3-[3-methoxy-4-(4-methyl-1H-imidazol-1-yl)phenyl]propenone], the pIC50 was 6.48.

In the case of COc1cc(/C=C/C(=O)N2CCCC(c3ccc(F)cc3)CC2)ccc1-n1cnc(C)c1 (stereo not shown) [Example 353, (E)-1-[4-(4-fluorophenyl)azepan-1-yl]-3-[3-methoxy-4-(4-methyl-1H-imidazol-1-yl)phenyl]propenone], the pIC50 was 6.66.

Work on COc1cc(/C=C/C(=O)N2CCC(c3cc4ccccc4n3CCO)CC2)ccc1-n1cnc(C)c1 [Example 366, (E)-1-{4-[1-(2-hydroxyethyl)-1H-indol-2-yl]piperidin-1-yl}-3-[3-methoxy-4-(4-methyl-1H-imidazol-1-yl)phenyl]propenone] yielded a pIC50 of 6.48.

COc1cc(/C=C2\CCCN(Cc3cccc(F)c3)C2=O)ccc1-n1cnc(C)c1 [Example 398, (E)-1-(3-fluorobenzyl)-3-[3-methoxy-4-(4-methyl-1H-imidazol-1-yl)benzylidene]piperidin-2-one] showed a pIC50 of 6.66.

COc1cc(/C=C2\CCCN(Cc3cccc(I)c3)C2=O)ccc1-n1cnc(C)c1 [Example 402, (E)-1-(3-iodobenzyl)-3-[3-methoxy-4-(4-methyl-1H-imidazol-1-yl)benzylidene]piperidin-2-one monotrifluoroacetic acid salt] gave a pIC50 of 7.15.

With COc1cc(/C=C2\CCCN(Cc3cc(Cl)nc(Cl)c3)C2=O)ccc1-n1cnc(C)c1 [Example 403, (E)-1-(2,6-dichloropyridine-4-ylmethyl)-3-[3-methoxy-4-(4-methyl-1H-imidazol-1-yl)benzylidene]piperidin-2-one] the pIC50 was 7.05.

COc1cc(/C=C2\CCCN(Cc3ccc(F)c(F)c3)C2=O)ccc1-n1cnc(C)c1 [Example 416, (E)-1-(3,4-difluorobenzyl)-3-[3-methoxy-4-(4-methyl-1H-imidazol-1-yl)benzylidene]piperidin-2-one] showed a pIC50 of 7.00.

COc1cc(/C=C2\CCCN(C3Cc4ccccc4C3)C2=O)ccc1-n1cnc(C)c1 [Example 418, (E)-1-indan-2-yl-3-[3-methoxy-4-(4-methyl-1H-imidazol-1-yl)benzylidene]piperidin-2-one] was tested, and the pIC50 was 6.96.

COc1cc(/C=C2\CCCN([C@@H](C)c3ccc(F)cc3)C2=O)ccc1-n1cnc(C)c1 [Example 425, (E)-1-[(1S)-1-(4-fluorophenyl)ethyl]-3-[3-methoxy-4-(4-methyl-1H-imidazol-1-yl)benzylidene]piperidin-2-one] was tested, and the pIC50 was 7.10.

COc1cc(/C=C2\CCCN(Cc3cccc(Cl)n3)C2=O)ccc1-n1cnc(C)c1 [Example 427, (E)-1-[(6-chloropyridin-2-yl)methyl]-3-[3-methoxy-4-(4-methyl-1H-imidazol-1-yl)benzylidene]piperidin-2-one] showed a pIC50 of 6.11.

In the case of COc1cc(/C=C2\CCCN(Cc3ccc(C(C)(C)C)cc3)C2=O)ccc1-n1cnc(C)c1 [Example 430, (E)-1-(4-tert-butylbenzyl)-3-[3-methoxy-4-(4-methyl-1H-imidazol-1-yl)benzylidene]piperidin-2-one], the pIC50 was 6.92.

Work on COc1cc(/C=C2\CCCN(Cc3ccc(F)c(F)c3)C2=O)cnc1-n1cnc(C)c1 [Example 611, (E)-1-(3,4-difluorobenzyl)-3-{[5-methoxy-6-(4-methyl-1H-imidazol-1-yl)pyridin-3-yl]methylene}piperidin-2-one] yielded a pIC50 of 6.58.

COc1cc(/C=C2\CCCN(C3(c4ccc(F)cc4)CCOCC3)C2=O)ccc1-n1cnc(C)c1 [Example 639, (E)-1-[4-(4-fluorophenyl)tetrahydropyran-4-yl)-3-(3-methoxy-4-(4-methyl-1H-imidazol-1-yl)benzylidene]piperidin-2-one] was tested, and the pIC50 was 7.25.

For COc1cc(/C=C2\CCCN(C(C)c3c[nH]c4ccccc34)C2=O)ccc1-n1cnc(C)c1 [Example 965, (E)-1-[(1R) and (1S)-(1H-indol-3-yl)ethyl]-3-[3-methoxy-4-(4-methyl-1H-imidazol-1-yl)benzylidene]piperidin-2-one], the pIC50 was 7.06.

COc1cc(/C=C2\CCCN(C(c3ccc(F)cc3)C(C)C)C2=O)ccc1-n1cnc(C)c1 [Example 976, (E)-1-[(1S) and (1R)-1-(4-fluorophenyl)-2-methylpropyl]-3-[3-methoxy-4-(4-methyl-1H-imidazol-1-yl)benzylidene]piperidin-2-one] showed a pIC50 of 7.10.

COc1cc(/C=C2\CCCN(C3Cc4ccc(F)cc4C3)C2=O)ccc1-n1cnc(C)c1 [Example 991, (E)-1-[(2S) and (2R)-5-fluoroindan-2-yl]-3-[3-methoxy-4-(4-methyl-1H-imidazol-1-yl)benzylidene]piperidin-2-one] showed a pIC50 of 7.22.

Source: patent US7687640B2, “Cinnamide compound” (Eisai R&D Management Co., Ltd., priority 2004, dated 2010)
